Data published in the supplement of paper PMC4862054.

Experiments:
Settings in all cases: incubation time: 72 h
BT-474 [1] = assay: normalised response (% of control), CellTox Green; higher = less cell death (100 = DMSO, 0 = benzethonium chloride kill control)
In short: (§1)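 Each value is the plate-normalised signal at one concentration of the series. Breast cancer cell lines (20 µl suspension) were incubated 72 h in 384-well plates with compound at 5 concentrations in 10-fold steps over a compound-specific 10,000-fold range. CellTox Green and then CellTiter-Glo were read, and each plate was scaled to 0.1 % DMSO (100) and a positive kill control (0).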

BT-549 [2] = assay: as above
In short: as §1

CAL-120 [3] = assay: as above
In short: as §1

CAL-148 [4] = assay: as above
In short: as §1

CAL-51 [5] = assay: as above
In short: as §1

CAL-85-1 [6] = assay: as above
In short: as §1

DU-4475 [7] = assay: as above
In short: as §1

HCC1143 [8] = assay: as above
In short: as §1

HCC1599 [9] = assay: as above
In short: as §1

HCC1937 [10] = assay: as above
In short: as §1

HDQ-P1 [11] = assay: as above
In short: as §1

Hs578T [12] = assay: as above
In short: as §1

MCF-10A [13] = assay: as above
In short: as §1

MDA-MB-231 [14] = assay: as above
In short: as §1

MDA-MB-436 [15] = assay: as above
In short: as §1

MDA-MB-453 [16] = assay: as above
In short: as §1

MDA-MB-468 [17] = assay: as above
In short: as §1

MFM-223 [18] = assay: as above
In short: as §1

BT-474 [19] = assay: normalised response (% of control), CellTiter-Glo; higher = more viable cells (100 = DMSO, 0 = benzethonium chloride kill control)
Description: (§2)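 DSRT, 72 h incubation, CellTox Green / CellTiter-Glo readout. Signal is normalised to DMSO and benzethonium chloride controls. Value is the normalised response at dose 3.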

BT-549 [20] = assay: as above
Description: as §2

CAL-120 [21] = assay: as above
Description: as §2

CAL-148 [22] = assay: as above
Description: as §2

CAL-51 [23] = assay: as above
Description: as §2

CAL-85-1 [24] = assay: as above
Description: as §2

DU-4475 [25] = assay: as above
Description: as §2

HCC1143 [26] = assay: as above
Description: as §2

HCC1599 [27] = assay: as above
Description: as §2

HCC1937 [28] = assay: as above
Description: as §2

HDQ-P1 [29] = assay: as above
Description: as §2

Hs578T [30] = assay: as above
Description: as §2

MCF-10A [31] = assay: as above
Description: as §2

MDA-MB-231 [32] = assay: as above
Description: as §2

MDA-MB-436 [33] = assay: as above
Description: as §2

MDA-MB-453 [34] = assay: as above
Description: as §2

MDA-MB-468 [35] = assay: as above
Description: as §2

MFM-223 [36] = assay: as above
Description: as §2

SK-BR-3 = assay: as above
Description: as §2

SMILES | normalised response (BT-474 [1]) [%] | normalised response (BT-549 [2]) [%] | normalised response (CAL-120 [3]) [%] | normalised response (CAL-148 [4]) [%] | normalised response (CAL-51 [5]) [%] | normalised response (CAL-85-1 [6]) [%] | normalised response (DU-4475 [7]) [%] | normalised response (HCC1143 [8]) [%] | normalised response (HCC1599 [9]) [%] | normalised response (HCC1937 [10]) [%] | normalised response (HDQ-P1 [11]) [%] | normalised response (Hs578T [12]) [%] | normalised response (MCF-10A [13]) [%] | normalised response (MDA-MB-231 [14]) [%] | normalised response (MDA-MB-436 [15]) [%] | normalised response (MDA-MB-453 [16]) [%] | normalised response (MDA-MB-468 [17]) [%] | normalised response (MFM-223 [18]) [%] | normalised response (BT-474 [19]) [%] | normalised response (BT-549 [20]) [%] | normalised response (CAL-120 [21]) [%] | normalised response (CAL-148 [22]) [%] | normalised response (CAL-51 [23]) [%] | normalised response (CAL-85-1 [24]) [%] | normalised response (DU-4475 [25]) [%] | normalised response (HCC1143 [26]) [%] | normalised response (HCC1599 [27]) [%] | normalised response (HCC1937 [28]) [%] | normalised response (HDQ-P1 [29]) [%] | normalised response (Hs578T [30]) [%] | normalised response (MCF-10A [31]) [%] | normalised response (MDA-MB-231 [32]) [%] | normalised response (MDA-MB-436 [33]) [%] | normalised response (MDA-MB-453 [34]) [%] | normalised response (MDA-MB-468 [35]) [%] | normalised response (MFM-223 [36]) [%] | normalised response (SK-BR-3) [%]
N#Cc1ccc(COC[C@H]2O[C@@H](n3c(NCc4ccc(Cl)c(Cl)c4)nc4c(N)ncnc43)[C@H](O)[C@@H]2O)cc1 (100 nM) | 100 | 99.3 | 99.7 | 104 | 114 | 101 | 106 | 108 | 115 | 60.8 | 85.9 | 114 | 97.2 | 86.9 | 96 | 110 | 130 | 108 | 98.6 | 103 | 108 | 104 | 97.2 | 104 | 103 | 103 | 98.3 | 95.3 | 101 | 95.2 | 102 | 111 | 110 | 95.7 | 100 | 110 | 104
COc1cc(O)c2c(c1)/C=C/C[C@H](O)[C@H](O)C(=O)/C=C\C[C@H](C)OC2=O [(5Z)-7-Oxozeaenol] (100 nM) | 104 | 91.1 | 104 | – | 109 | – | 96.9 | 89.1 | 108 | 105 | 85.9 | 79.4 | – | 109 | 104 | 102 | 107 | 105 | 95.4 | 76.2 | 101 | 101 | 103 | 88.5 | 76.1 | 99 | 91.2 | 92.4 | 84.1 | 98.9 | 84.8 | 104 | 104 | 108 | 92.9 | 103 | 108
COc1cc(OC2CCN(C)CC2)ccc1Nc1ncc2c(n1)n(C1CCCC1)c(=O)n2C [AZ 3146] (100 nM) | 98.3 | 111 | 96.9 | 89.9 | 111 | 107 | 99.8 | 96.7 | 96.6 | 96.3 | 96.2 | 99.1 | – | 92.5 | 77.7 | 104 | – | 100 | 104 | 108 | 99.9 | 99.2 | 115 | 102 | 99.9 | 98.8 | 98.3 | 96.2 | 98.7 | 94.1 | 96.7 | 99.1 | 104 | 111 | 101 | 99.2 | 98.1
CNC(=O)c1cccc(-c2ccc3c(N4CCOC[C@@H]4C)nc(N4CCOC[C@@H]4C)nc3n2)c1 [AZD2014] (100 nM) | 102 | 101 | 101 | 83.9 | 49.6 | 104 | 103 | 105 | 93 | – | 106 | 107 | 51.3 | 121 | 118 | 98.7 | – | 103 | 87.1 | 73.9 | 79.4 | 85.6 | 69.4 | 87.6 | 97.1 | 92.3 | 119 | 80.8 | 70.5 | 93.6 | 97.3 | 86.9 | 82 | 80.8 | 94.7 | 75.1 | 64.7
O=C(/C=C/c1cccc(S(=O)(=O)Nc2ccccc2)c1)NO [Belinostat] (100 nM) | 96.7 | 100 | 99.2 | 101 | 83.8 | 94.8 | 99.4 | 95.4 | 104 | 89.8 | 104 | 103 | – | 76.3 | 93.2 | 100 | 131 | 84.1 | 95 | 99.3 | 87.5 | 79.8 | 63.4 | 85.6 | 86.4 | 89.1 | 92.3 | 83.9 | 83.7 | 95 | 81.3 | 85.5 | 83.6 | 62.3 | 83.6 | 85.6 | 82.7
Cc1ccc(NC(=O)c2ccc(CN3CCN(C)CC3)cc2)cc1Nc1nc(-c2cccnc2)cs1 [Masitinib] (100 nM) | 95.3 | 91 | 98.9 | 95.1 | 104 | 99.3 | 99.3 | 105 | 101 | – | 87.1 | 106 | 68.2 | 91.5 | 73.4 | 103 | 116 | 91.6 | 101 | 107 | 97.7 | 106 | 83.5 | 101 | 105 | 102 | 93.8 | 103 | 109 | 102 | 91.6 | 111 | 107 | 106 | 99.8 | 106 | 99
COC(=O)c1ccc2c(c1)NC(=O)/C2=C(\Nc1ccc(N(C)C(=O)CN2CCN(C)CC2)cc1)c1ccccc1 [Nintedanib] (100 nM) | 102 | 101 | 100 | 102 | 109 | 98.1 | 103 | 106 | 95.1 | 108 | 83.3 | – | 102 | 92.7 | 93 | 101 | 82.3 | 98.9 | 96.8 | 108 | 98.7 | 106 | 103 | 98.7 | 100 | 101 | 114 | 94.9 | 95 | 103 | 93.4 | 105 | 102 | 109 | 92.2 | 95.8 | 98.3
S=P(N1CC1)(N1CC1)N1CC1 [Thio-TEPA] (500 nM) | 94.3 | 108 | 97 | 102 | 113 | 107 | 101 | 101 | 97.2 | – | 92.6 | 88.8 | – | 105 | 85.2 | 102 | 69 | 100 | 95 | 102 | 96.1 | 95.6 | 108 | 103 | 104 | 97.5 | 89 | 95.4 | 102 | 101 | 106 | 98.8 | 94.8 | 116 | 101 | 98.7 | 110
CN(C)CCOc1ccc(/C(=C(/CCCl)c2ccccc2)c2ccccc2)cc1 [Toremifene] (100 nM) | 101 | 92.8 | 102 | 84.1 | 110 | 98.3 | 102 | 70.6 | 99.1 | – | 74.3 | 99.7 | 71.6 | 55.6 | – | 106 | 127 | 92.6 | 102 | 101 | 105 | 109 | 100 | 94.6 | 104 | 103 | 102 | 99.7 | 98.2 | 104 | 103 | 105 | 100 | 107 | 99.1 | 103 | 102
